{"source": "paper PMC9604325", "about": "(International Journal of Molecular Sciences, 2022)", "assay_type_in_all_cases": "cell-based, mouse", "key": {"HT-22 cells [1]": {"system": "HT-22 cells", "test": "Intracellular ROS, H2DCFDA oxidation", "details": "2 μM Aβ(1-42), 10 μM H2DCFDA, p < 0.05", "procedure": "For the detection of intracellular ROS levels, we measured the oxidation of H2DCFDA to the fluorescent compound dichlorofluorescein, as previously described, with minor modifications. […] Then, 10 μM of H2DCFDA was added to the medium and the fluorescence intensity was recorded every 15 s for 10 min with an excitation filter of 470 nm, and 510 nm dichroic mirror/520 nm emission filter, using an exposure time of 0.2 s."}, "HT-22 cells [2]": {"system": "HT-22 cells", "test": "Internalization of Aβ(1-42) in living HT-22 cells (red fluorescence of Aβ(1-42)*555, calibration curve)", "details": "2 μM Aβ(1-42) total (unlabeled plus Aβ(1-42)*555) in culture medium, 37 °C, 5% CO2, red fluorescence microscopy, calibration with Aβ(1-42)*555 in fixed permeabilized cells, mean ± SEM", "procedure": "Then, the cells were washed once with 1 mL of MLocke’s K5, and the 35 mm dishes were placed in the holder of the microscope at 37 °C for RF imaging. The fluorescence microscopy images of the HT-22 cells were acquired with a Hamamatsu Orca-R^2 CCD camera (binning mode 2 × 2) camera (Hamamatsu, Hamamatsu-city, Japan) attached to a Nikon Diaphot 300 epifluorescence microscope (Tokyo, Japan) with an NCF Plan ELWD 40× objective, using an excitation filter of 556 nm and a dichroic mirror of 580 nm with an emission filter of 590 nm, and a 0.06 s exposure time. The ROI tool of the HCImage software was used for the quantitative analysis. The average fluorescence intensity readings per pixel in HT-22 cells were taken from several fields for a total number of 80 cells and after the subtraction of the autofluorescence. […]\nSupplementary Figure S1. Calibration data were obtained with […]\nmedium of fixed and permeabilized HT-22 cells to calculate the internalized concentration of Aβ(1–42) in living HT-22 cells. The […]\nmonomers/L. The results shown are the mean ± SEM of\n(also on this page, place not known: Fluorescence Intensity per pixel (A.U.))"}, "HT-22 cells [3]": {"system": "HT-22 cells", "test": "Resting cytosolic Ca2+ concentration, Fura2/Fluo3-loaded HT-22 cells", "details": "2 μM Aβ(1-42), control 75 ± 8 nM, mean ± SEM of triplicates, n > 60 cells", "procedure": "Cytosolic Ca^2+ imaging was assessed in the HT-22 cell culture with the fluorescent probe Fluo3-AM. […] The untread cells were regarded as the controls. […] Then, the cells were washed once with 1 mL of MLocke’s K5 buffer, and the 35 mm culture dishes were placed in the thermostatic plate at 37 °C (Warner Instrument Co., Hamden, CT, USA) of the Nikon Diaphot 300 inverted epifluorescence microscope (Tokyo, Japan) with an NCF Plan ELWD 40× objective (the pixel size of the images shown in this work was 0.2 μm). The images of the Fluo3-loaded cells were acquired with the Hamamatsu Orca-R^2 CCD camera (binning mode 2 × 2) with an excitation filter of 470 nm, a dichroic mirror of 510 nm with an emission filter of 520 nm, and a 0.3 s exposure time. […] The depletion of the Ca^2+ stores was triggered by adding 2 μM of the SERCA pump blocker Tg plus ethylene glycol tetraacetic acid (1 mM), in a Ca^2+-free Mlocke’s K5 buffer. Then, the SOCE was measured after the addition of 3 mM of CaCl2 to the Tg-containing medium. […] The activity of the RyR Ca^2+-leak channels was evaluated by incubation with 100 μM of the RyR antagonist ryanodine for 1 h in the HT-22 culture media. In all experiments with antagonists, we performed the respective dimethylsulfoxide vehicle controls. […]"}}}
{"substance": "Aβ(1-42): Unlabeled amyloid β peptide (1-42), synthesized and supplied by StabVida", "values": [{"measurement": "increase in ROS production compared with untreated cells", "setting": "HT-22 cells [1]; 2 h", "result": 1.3, "unit": "fold"}, {"measurement": "increase in ROS production compared with untreated cells", "setting": "HT-22 cells [1]; 5 h", "result": 1.7, "unit": "fold"}, {"measurement": "concentration of internalized Aβ(1-42) monomers", "setting": "HT-22 cells [2]; 2 h", "result": "62 ± 11", "unit": "nM"}, {"measurement": "concentration of internalized Aβ(1-42) monomers", "setting": "HT-22 cells [2]; 5 h", "result": "135 ± 15", "unit": "nM"}, {"measurement": "intracellular Ca2+ concentration [Ca2+]i", "setting": "HT-22 cells [3]; 2 h", "result": "81 ± 9", "unit": "nM"}, {"measurement": "intracellular Ca2+ concentration [Ca2+]i", "setting": "HT-22 cells [3]; 5 h", "result": "82 ± 8", "unit": "nM"}]}
